Laboratory results reported in paper PMC5430874 (Scientific Reports, 2017).
Changes are numbered by the printed parent chain.

How the values were obtained:
Type in all cases: cell-based
[1] = molecular target: T1, GPR139 E105Q3x29 (Homo sapiens, UniProt Q6DWJ6, E105Q); assay: Fluo-4 Ca2+-assay, GPR139 mutant E105Q
T1 construct: mGluR5 signal peptide (N); expressed in transfected cells; host or cells: HEK293
T1 sequence (Q6DWJ6 2-353 E105Q limits assumed): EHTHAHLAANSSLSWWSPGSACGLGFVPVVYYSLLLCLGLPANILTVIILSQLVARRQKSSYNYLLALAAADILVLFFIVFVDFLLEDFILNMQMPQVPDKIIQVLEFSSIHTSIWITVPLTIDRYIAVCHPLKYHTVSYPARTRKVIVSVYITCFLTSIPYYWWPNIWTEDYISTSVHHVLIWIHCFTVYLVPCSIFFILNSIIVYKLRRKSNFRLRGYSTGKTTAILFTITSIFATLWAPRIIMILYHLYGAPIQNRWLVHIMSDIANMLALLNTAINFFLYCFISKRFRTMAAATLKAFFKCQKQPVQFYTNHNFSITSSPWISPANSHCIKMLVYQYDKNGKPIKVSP
Text: (§1) To study the influence of specific amino acids in the predicted binding pocket on receptor function, the desired mutations were introduced into an N-terminally c-myc-tagged wild type human GPR139 (NM_001002911.3) in the pEGFP-N1 vector (BD Biosciences)[32], [33]. As previously described, these plasmids carry the signal peptide of mGluR5 to promote cell surface expression followed by a c-myc epitope to enable detection of total and surface expression by ELISA, followed by an engineered MluI and NotI site for easy insertion of the receptor of interest. Furthermore, the start-codon in the GPR139 sequence was deleted to ensure c-myc-tagging. […]
(§2) The Ca^2+ measurements were preformed using the Fluo-4 NW Calcium Assay Kit (Invitrogen, Molecular Probes, F36206) as previously described. […] Intracellular calcium changes were recorded as indicated on either a NOVOstar (BMG Labtech) at 37 °C with an excitation filter of 485 nm and an emission filters 520 nm or a FlexStation 3 Benchtop Multi-Mode Microplate Reader (Molecular Devices) at 37 °C with an excitation wavelength of 485 nm and emission of 525 nm.
(§3) All pharmacological data have been analyzed by using Prism 6.0 (GraphPad Software Inc., San Diego). […] Changes in potency (pEC50) and span of myc-GPR139(WT) in comparison to untagged GPR139(WT) was statistically analyzed with a paired t-test and significance was accepted at p < 0.05. […]

[2] = molecular target: T2, GPR139 L87F2x64 (Homo sapiens, UniProt Q6DWJ6, L87F); assay: Fluo-4 Ca2+-assay, GPR139 mutant L87F
T2 construct: mGluR5 signal peptide (N); expressed in transfected cells; host or cells: HEK293
T2 sequence (Q6DWJ6 2-353 L87F limits assumed): T1 sequence (Q6DWJ6 2-353 E105Q limits assumed) with L86F, Q104E
Text: as §1, §2, §3

[3] = molecular target: T3, GPR139 H264A7x31 (Homo sapiens, UniProt Q6DWJ6, H264A); assay: Fluo-4 Ca2+-assay, GPR139 mutant H264A
T3 construct: mGluR5 signal peptide (N); expressed in transfected cells; host or cells: HEK293
T3 sequence (Q6DWJ6 2-353 H264A limits assumed): T1 sequence (Q6DWJ6 2-353 E105Q limits assumed) with Q104E, H263A
Text: as §1, §2, §3

Q: What does the source list for `COc1cc(OC)cc(C(=O)NNC(=O)Nc2cccc3ccccc23)c1` [Compound 1a]?
A: EC50 ([1]; E105Q mutant): 145 nM; Emax ([1]; E105Q, normalized to buffer (0%) and 8 µM 1a (100%)): 177 ± 36%; EC50 ([2]; L87F mutant): 427 nM; Emax ([2]; L87F, normalized to buffer (0%) and 8 µM 1a (100%)): 97 ± 14%; EC50 ([3]; H264A mutant): 251 nM; Emax ([3]; H264A, normalized to buffer (0%) and 8 µM 1a (100%)): 148 ± 15%
